Laboratory results as given in ChEMBL document CHEMBL4616601, “Meeting organometallic chemistry with drug discovery: CH activation enabled discovery of a new ring system of 12H-Indazolo[2,1-a]cinnolin-12-ones with anti-proliferation activity” (Bioorg Med Chem Lett, 2020).
Active and inactive are the calls of the source. How the calls were made is not given here.

Assays:
PC-3 [1] = experiment: Antiproliferative activity against human PC3 cells assessed as inhibition of cell viability at 0.5 to 5 uM after 72 hrs by CCK8 assay; type: functional, cell-based
PC-3 [2] = experiment: Antiproliferative activity against human PC3 cells at 0.5 uM assessed as inhibition of cell viability after 72 hrs by CCK-8 assay relative to control; type: functional; details: PC-3, 72 h
PC-3 [3] = experiment: Antiproliferative activity against human PC3 cells assessed as reduction in cell viability after 72 hrs by CCK8 assay; type: functional, cell-based; details: PC-3, 72 h
PANC-1 = experiment: Antiproliferative activity against human PANC1 cells assessed as reduction in cell viability after 72 hrs; type: functional, cell-based; details: PANC-1, 72 h
SW1990 = experiment: Antiproliferative activity against human SW1990 cells assessed as reduction in cell viability; type: functional, cell-based
SK-BR-3 = experiment: Antiproliferative activity against human SKBR3 cells assessed as reduction in cell viability; type: functional, cell-based
HCT-116 = experiment: Antiproliferative activity against human HCT116 cells assessed as reduction in cell viability; type: functional, cell-based
NCI-H1299 = experiment: Antiproliferative activity against human NCI-H1299 cells assessed as reduction in cell viability; type: functional, cell-based
HepG2 = experiment: Antiproliferative activity against human HepG2 cells assessed as reduction in cell viability; type: functional, cell-based
HeLa = experiment: Antiproliferative activity against human HeLa cells assessed as reduction in cell viability; type: functional, cell-based
DU-145 = experiment: Antiproliferative activity against human DU145 cells assessed as reduction in cell viability; type: functional, cell-based
PC-3 [4] = experiment: Inhibition of colony formation in human PC3 cells at 50 nM after 1 week relative to control; type: functional; details: PC-3, 168 h
PC-3 [5] = experiment: Inhibition of colony formation in human PC3 cells at 250 nM after 1 week relative to control; type: functional; details: PC-3, 168 h
PC-3 [6] = experiment: Inhibition of colony formation in human PC3 cells after 1 week; type: functional, cell-based
PC-3 [7] = experiment: Induction of cell cycle arrest in human PC3 cells assessed as accumulation at G2/M phase after 24 hrs by flow cytometry; type: functional, cell-based
PC-3 [8] = experiment: Induction of cell cycle arrest in human PC3 cells assessed as accumulation at G1 phase at 50 nM after 24 hrs by flow cytometry (reference value: 56.46%); type: functional
PC-3 [9] = experiment: Induction of cell cycle arrest in human PC3 cells assessed as accumulation at S phase at 50 nM after 24 hrs by flow cytometry (reference value: 24.73%); type: functional
PC-3 [10] = experiment: Induction of cell cycle arrest in human PC3 cells assessed as accumulation at G2/M phase at 50 nM after 24 hrs by flow cytometry (reference value: 18.81%); type: functional
PC-3 [11] = experiment: Induction of cell cycle arrest in human PC3 cells assessed as accumulation at G1 phase at 100 nM after 24 hrs by flow cytometry (reference value: 56.46%); type: functional
PC-3 [12] = experiment: Induction of cell cycle arrest in human PC3 cells assessed as accumulation at S phase at 100 nM after 24 hrs by flow cytometry (reference value: 24.73%); type: functional
PC-3 [13] = experiment: Induction of cell cycle arrest in human PC3 cells assessed as accumulation at G2/M phase at 100 nM after 24 hrs by flow cytometry (reference value: 18.81%); type: functional
PC-3 [14] = experiment: Induction of cell cycle arrest in human PC3 cells assessed as accumulation at G1 phase at 250 nM after 24 hrs by flow cytometry (reference value: 56.46%); type: functional
PC-3 [15] = experiment: Induction of cell cycle arrest in human PC3 cells assessed as accumulation at S phase at 250 nM after 24 hrs by flow cytometry (reference value: 24.73%); type: functional
PC-3 [16] = experiment: Induction of cell cycle arrest in human PC3 cells assessed as accumulation at G2/M phase at 250 nM after 24 hrs by flow cytometry (reference value: 18.81%); type: functional
PC-3 [17] = experiment: Induction of cell cycle arrest at G2/M phase in human PC3 cells assessed as increase in cyclin B1 expression after 24 hrs by Western blot analysis; type: functional, cell-based
PC-3 [18] = experiment: Induction of cell cycle arrest at G2/M phase in human PC3 cells assessed as increase in CDC2 expression after 24 hrs by Western blot analysis; type: functional, cell-based
PC-3 [19] = experiment: Induction of apoptosis in human PC3 cells assessed as viable cells at 50 nM after 24 hrs by Annexin V-FITC/propidium iodide staining-based flow cytometry (reference value: 75.33%); type: functional; details: PC-3, 24 h, read-out: Activity
PC-3 [20] = experiment: Induction of apoptosis in human PC3 cells assessed as early apoptotic cells at 50 nM after 24 hrs by Annexin V-FITC/propidium iodide staining-based flow cytometry (reference value: 11.88%); type: functional
PC-3 [21] = experiment: Induction of apoptosis in human PC3 cells assessed as late apoptotic cells at 50 nM after 24 hrs by Annexin V-FITC/propidium iodide staining-based flow cytometry (reference value: 12.21%); type: functional
PC-3 [22] = experiment: Induction of apoptosis in human PC3 cells assessed as necrotic cells at 50 nM after 24 hrs by Annexin V-FITC/propidium iodide staining-based flow cytometry (reference value: 0.58%); type: functional
PC-3 [23] = experiment: Induction of apoptosis in human PC3 cells assessed as viable cells at 100 nM after 24 hrs by Annexin V-FITC/propidium iodide staining-based flow cytometry (reference value: 75.33%); type: functional; details: PC-3, 24 h, read-out: Activity
PC-3 [24] = experiment: Induction of apoptosis in human PC3 cells assessed as early apoptotic cells at 100 nM after 24 hrs by Annexin V-FITC/propidium iodide staining-based flow cytometry (reference value: 11.88%); type: functional
PC-3 [25] = experiment: Induction of apoptosis in human PC3 cells assessed as late apoptotic cells at 100 nM after 24 hrs by Annexin V-FITC/propidium iodide staining-based flow cytometry (reference value: 12.21%); type: functional
PC-3 [26] = experiment: Induction of apoptosis in human PC3 cells assessed as necrotic cells at 100 nM after 24 hrs by Annexin V-FITC/propidium iodide staining-based flow cytometry (reference value: 0.58%); type: functional
PC-3 [27] = experiment: Induction of apoptosis in human PC3 cells assessed as viable cells at 250 nM after 24 hrs by Annexin V-FITC/propidium iodide staining-based flow cytometry (reference value: 75.33%); type: functional; details: PC-3, 24 h, read-out: Activity
PC-3 [28] = experiment: Induction of apoptosis in human PC3 cells assessed as early apoptotic cells at 250 nM after 24 hrs by Annexin V-FITC/propidium iodide staining-based flow cytometry (reference value: 11.88%); type: functional
PC-3 [29] = experiment: Induction of apoptosis in human PC3 cells assessed as late apoptotic cells at 250 nM after 24 hrs by Annexin V-FITC/propidium iodide staining-based flow cytometry (reference value: 12.21%); type: functional
PC-3 [30] = experiment: Induction of apoptosis in human PC3 cells assessed as necrotic cells at 250 nM after 24 hrs by Annexin V-FITC/propidium iodide staining-based flow cytometry (reference value: 0.58%); type: functional
PC-3 [31] = experiment: Induction of apoptosis in human PC3 cells after 24 hrs by Annexin V-FITC/propidium iodide staining-based flow cytometry; type: functional, cell-based
PC-3 [32] = experiment: Induction of apoptosis in human PC3 cells assessed as reduction in caspase-3 expression after 24 hrs by Western blot analysis; type: functional, cell-based
PC-3 [33] = experiment: Induction of apoptosis in human PC3 cells assessed as reduction in PARP expression level after 24 hrs by Western blot analysis; type: functional, cell-based
PC-3 [34] = experiment: Induction of apoptosis in human PC3 cells assessed as increase in PARP cleavage after 24 hrs by Western blot analysis; type: functional, cell-based

CCOC(=O)c1c(C)n2c3ccccc3c(=O)n2c2ccc3c(c12)OCO3 was tested, and the Activity (PC-3 [1]) was “Active”, the inhibition at 0.5 µM (PC-3 [2]) was 62.8% and the IC50 (PC-3 [3]) was 0.159 µM. For the same compound, the IC50 (PANC-1) was 0.197 µM, the IC50 (SW1990) was 0.041 to 0.188 µM and the IC50 (SK-BR-3) was 0.041 to 0.188 µM. It also gave an IC50 (HCT-116) of 0.041 to 0.188 µM, an IC50 (NCI-H1299) of 0.041 to 0.188 µM and an IC50 (HepG2) of 0.041 to 0.188 µM. It also gave an IC50 (HeLa) of 0.041 to 0.188 µM, an IC50 (DU-145) of 0.041 to 0.188 µM and an inhibition at 0.05 µM (PC-3 [4]) of 85%. The inhibition at 0.25 µM (PC-3 [5]) was 98%, the inhibition (PC-3 [6]) was “Dose-dependent effect” and the Activity (PC-3 [7]) was “Dose-dependent effect”. The Activity (PC-3 [8]) was 55.12%, the Activity (PC-3 [9]) was 23.43% and the Activity (PC-3 [10]) was 21.45%. It also gave an Activity (PC-3 [11]) of 46.89%, an Activity (PC-3 [12]) of 22.46% and an Activity (PC-3 [13]) of 30.65%. It also gave an Activity (PC-3 [14]) of 14.06%, an Activity (PC-3 [15]) of 24.16% and an Activity (PC-3 [16]) of 61.78%. For the same compound, the Activity (PC-3 [17]) was “Dose-dependent effect”, the Activity (PC-3 [18]) was “Dose-dependent effect” and the viability at 0.05 µM (PC-3 [19]) was 34.7%. It also gave an Activity (PC-3 [20]) of 25.82%, an Activity (PC-3 [21]) of 37.02% and an Activity (PC-3 [22]) of 2.48%. The viability at 0.1 µM (PC-3 [23]) was 13%, the Activity (PC-3 [24]) was 18.52% and the Activity (PC-3 [25]) was 56.27%. It also gave an Activity (PC-3 [26]) of 12.2%, a viability at 0.25 µM (PC-3 [27]) of 4.73% and an Activity (PC-3 [28]) of 27.88%. The Activity (PC-3 [29]) was 62.42%, the Activity (PC-3 [30]) was 4.97% and the Activity (PC-3 [31]) was “Dose-dependent effect”. The Activity (PC-3 [32]) was “Dose-dependent effect”, the Activity (PC-3 [33]) was “Dose-dependent effect” and the Activity (PC-3 [34]) was “Dose-dependent effect”.
